A short description of series [1]: Microsomal stability in human liver microsomes (HLM). The following applies: 1 μM test compound. It counts as in vitro ADME. On the procedure: The procedure for investigating the metabolism of selected compounds was carried out in microsomal fractions of the liver (of rats, mice, humans) in the presence of a phase I metabolism cofactor (NADPH).
The rate of enzymatic decomposition of the compound in liver microsomes in in vitro analysis was determined by keeping a reaction mixture comprising 0.5 mg/ml of pooled human, rat or mouse liver microsomes, 1 μM test compound, 1.5 mM […] (Carbosynth, UK, cat. no. NN108711101) and 1.5 mM magnesium chloride in 0.1 M sodium phosphate buffer (pH 7.4) in a solid-state thermostat at 37° C. (XenoTech, USA, order no. H2610, cat. no. R1000, cat. no. M1000). Incubation was carried out in three replicates.
To determine the stability of compounds under sample preparation conditions, an aliquot in two replicates with the test compound and a microsomal fraction devoid of the NADPH cofactor, which was incubated for 40 minutes at 37° C.
Reactions were stopped at 0, 10, 20, 30 and 40 min time points by way of adding an ice mixture of acetonitrile:methanol (3:1) comprising an internal standard.
Samples were then centrifuged to remove the precipitated protein, supernatants were analyzed using HPLC-MS/MS to determine in vitro clearance (CLint) of the compounds. The Agilent 6410 mass spectrometer (Agilent, USA) combined with the Agilent 1260 Infinity II HPLC liquid chromatograph (Agilent, USA) and a cooling autosampler controlled by MassHunter software (Agilent, USA) was used as an HPLC-MS/MS system. Chromatographic analysis was performed on a C18 reversed-phase HPLC column (Agilent, Waters or equivalent) in a gradient elution mode in a system of mobile phases: 0.1% formic acid in water/0.1% formic acid in acetonitrile, flow rate: 0.5 ml/min, column T=35° C. Mass spectrometric detection was performed with electrospray ionization in multiple reaction monitoring mode. Precursor ions, fragment ions and collision energies for each substance were selected experimentally.
A graph of dependence of the logarithmic ratio between substance's peak area and internal standard's peak area vs time was built. The dependent coefficient of this line corresponded to the elimination rate constant k, on the basis of which the in vitro clearance CLint was calculated:
Based on resulting in vitro clearance CLint values, the microsomal stability of the selected compounds for humans, rats and mice was concluded.
Background: Microsomes from liver hold many membrane-bound enzymes, among them those of drug oxidation.

A short description of series [2]: Passive membrane permeability through PAMPA artificial membrane, pH 7.4. The following applies: pH 7.4, 10 μmol, 20 hours at room temperature, mean of multiple measurements, read-out: PAMPA passive permeability Pe. It counts as in vitro ADME. The essentials: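 Compound at 10 μmol in 0.01 M phosphate buffer pH 7.4 placed in donor wells over lecithin-phospholipid-impregnated PVDF filter, buffer in acceptor; 20 h at room temperature. Donor and acceptor levels measured by RP-HPLC-UV; Pe (cm/s) and membrane retention R (%) calculated.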

Series [3] deals with CDK2/Cyclin A (Homo sapiens, UniProt P24941). The series is described as follows: Inhibition of CDK2/Cyclin A kinase activity (ADP-Glo). It counts as biochemical. The essentials: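 ADP-Glo luminescence quantified ATP consumption after a 40-60 minute, 25° C. reaction with ATP plus CDKtide, Histone H1 or PDKtide, following a 10-minute compound–kinase preincubation in DTT-supplemented kinase buffer A. Compounds spanned 11 concentrations from 50 μM in 4-fold dilutions; IC50 fitted to a four-parameter model.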

Where [4] appears, read: mean of multiple measurement series, ATP 50 μM, read-out: CDK2/Cyclin A IC50.
Where [5] appears, read: mean value from several measurements, read-out: IC50 CDK2/Cyclin A.

Each structure is given as a SMILES string. Like-named read-outs stand apart in the source and are kept apart here.

As for `CC(C)N1CCCc2c(-c3nc(N[C@H]4CCC5(CC5)NC4)ncc3C(F)(F)F)c[nH]c2C1=O` [CDK7_1277, 3-(2-{[(6S)-4-azaspiro[2.5]octan-6-yl]amino}-5-(trifluoromethyl)py-rimidin-4-yl)-7-(propan-2-yl)-1H,4H,5H,6H,7H, 8H-pyrrolo[2,3-c]azepin-8-one], the “In vitro clearance CLint (HLM)” value in series [1] is “B (50 μl/(min · mg of protein) > Clint > 20 μl/(min · mg of protein))”. Besides, in series [2], the Papp at 20 h, 10 μmol lay within 5 to 10 ×10⁻⁶ cm/s. Moreover, the IC50 was 14.3 µM in series [3] (setting [4]) and above 0.2 µM in series [3] (setting [5]).

`Cn1cc(N2CCCc3c(-c4nc(N[C@H]5CCCNC5)ncc4C(F)(F)F)c[nH]c3C2=O)cn1` [CDK7_955, 7-(1-methyl-1H-pyrazol-4-yl)-3-(2-{[(3S)-piperidin-3-yl]amino}-5-(trifluoromethyl)py-rimidin-4-yl)-1H,4H,5H,6H,7H, 8H-pyrrolo[2,3-c]azepin-8-one]: the “In vitro clearance CLint (HLM)” value in series [1] is recorded as “A (Clint < 20 μl/(min · mg of protein))”. In series [2], the Papp at 20 h, 10 μmol was below 1 ×10⁻⁶ cm/s. The IC50 in series [3] (setting [5]) is above 0.2 µM.

For the compound `O=C1c2[nH]cc(-c3nc(NC4CCCNC4)ncc3C(F)(F)F)c2CCCN1c1nccs1` (stereo not shown) [CDK7_1172], the “In vitro clearance CLint (HLM)” value in series [1] was “B (50 μl/(min · mg of protein) > Clint > 20 μl/(min · mg of protein))”. The Papp at 20 h, 10 μmol in series [2] fell in the range of 1 to 5 ×10⁻⁶ cm/s. The IC50 in series [3] (setting [5]) was above 0.2 µM.

On to `CC1(C)CC[C@H](Nc2ncc(C(F)(F)F)c(-c3c[nH]c4c3CCCN(CC3CC3)C4=O)n2)CN1` [CDK7_1227, 7-(cyclopropylmeth-yl)-3-(2-{[(3S)-6,6-dimethylpiperidin-3-yl]amino}-5-(trifluoromethyl)py-rimidin-4-yl)-1H,4H,5H,6H,7H, 8H-pyrrolo[2,3-c]azepin-8-one], for which the Papp at 20 h, 10 μmol in series [2] was in the range of 5 to 10 ×10⁻⁶ cm/s. Also, in series [3] (setting [5]), the IC50 was above 0.2 µM.

With `CCN1CCCc2c(-c3nc(N[C@H]4CCC(C)(C)NC4)ncc3C(F)(F)F)c[nH]c2C1=O` [CDK7_1259, 3-(2-{[(3S)-6,6-dimethylpiperidin-3-yl]amino}-5-(trifluoromethyl)py-rimidin-4-yl)-7-ethyl-1H,4H,5H,6H,7H, 8H-pyrrolo[2,3-c]azepin-8-one], in series [2], the Papp at 20 h, 10 μmol was 1 to 5 ×10⁻⁶ cm/s. The IC50 in series [3] (setting [5]) is above 0.2 µM.

`CN1CCCc2c(-c3nc(N[C@H]4CCC(C)(C)NC4)ncc3C(F)(F)F)c[nH]c2C1=O` [CDK7_1187, 3-(2-{[(3S)-6,6-dimethylpiperidin-3-yl]amino}-5-(trifluoromethyl)py-rimidin-4-yl)-7-methyl-1H,4H,5H,6H,7H, 8H-pyrrolo[2,3-c]azepin-8-one]: the “In vitro clearance CLint (HLM)” value in series [1] is “B (50 μl/(min · mg of protein) > Clint > 20 μl/(min · mg of protein))”. In series [2], the Papp at 20 h, 10 μmol was 1 to 5 ×10⁻⁶ cm/s. Further, the IC50 was 15.7 µM in series [3] (setting [4]) and above 0.2 µM in series [3] (setting [5]).

Regarding `O=C1c2[nH]cc(-c3nc(N[C@H]4CCCNC4)ncc3C(F)(F)F)c2CCCN1c1ccccn1` [CDK7_1176, 3-(2-{[(3S)-piperidin-3-yl]amino}-5-(trifluoromethyl)py-rimidin-4-yl)-7-(pyridin-2-yl)-1H,4H,5H,6H,7H, 8H-pyrrolo[2,3-c]azepin-8-one], in series [1], the “In vitro clearance CLint (HLM)” value is “A (Clint < 20 μl/(min · mg of protein))”. Moreover, the Papp at 20 h, 10 μmol in series [2] lay within 1 to 5 ×10⁻⁶ cm/s.

Take `CC1CCc2c(-c3nc(N[C@H]4CCCNC4)ncc3C(F)(F)F)c[nH]c2C(=O)N1C` (stereo partly drawn) [CDK7_1254, 6,7-dimethyl-3-(2-{[(3S)-piperidin-3-yl]amino}-5-(trifluoromethyl)py-rimidin-4-yl)-1H,4H,5H,6H,7H, 8H-pyrrolo[2,3-c]azepin-8-one]: the “In vitro clearance CLint (HLM)” value in series [1] was “A (Clint < 20 μl/(min · mg of protein))”. The Papp at 20 h, 10 μmol in series [2] was 1 to 5 ×10⁻⁶ cm/s. In addition, in series [3] (setting [5]), the IC50 was above 0.2 µM.

Take `Cn1cc(-n2ccc3c(-c4nc(N[C@H]5CCCNC5)ncc4C(F)(F)F)c[nH]c3c2=O)cn1` [CDK7_959, 6-(1-methyl-1H-pyrazol-4-yl)-3-(2-{[(3S)-piperidin-3-yl]amino}-5-(trifluoromethyl)py-rimidin-4-yl)-1H,6H,7H-pyrrolo[2,3-c]pyridin-7-one]: the “In vitro clearance CLint (HLM)” value in series [1] is listed as “A (Clint < 20 μl/(min · mg of protein))”. Further, the Papp at 20 h, 10 μmol in series [2] was below 1 ×10⁻⁶ cm/s. The IC50 is 5.26 µM in series [3] (setting [4]) and above 0.2 µM in series [3] (setting [5]).

For `O=c1c2[nH]cc(-c3nc(N[C@H]4CCCNC4)ncc3C(F)(F)F)c2ccn1Cc1ccccc1` [CDK7_961, 6-benzyl-3-(2-{[(3S)-piperidin-3-yl]amino}-5-(trifluoromethyl)py-rimidin-4-yl)-1H,6H,7H-pyrrolo[2,3-c]pyridin-7-one], in series [1], the “In vitro clearance CLint (HLM)” value is “A (Clint < 20 μl/(min · mg of protein))”. Further, in series [2], the Papp at 20 h, 10 μmol lay within 1 to 5 ×10⁻⁶ cm/s. Besides, the IC50 in series [3] (setting [4]) was 3.7 µM; in series [3] (setting [5]), above 0.2 µM.

With `O=C1c2[nH]cc(-c3nc(N[C@H]4CCC5(CC5)NC4)ncc3C(F)(F)F)c2CCCN1C1CC1` [CDK7_1276, 3-(2-{[(6S)-4-azaspiro[2.5]octan-6-yl]amino}-5-(trifluoromethyl)py-rimidin-4-yl)-7-cyclopropyl-1H,4H,5H,6H,7H, 8H-pyrrolo[2,3-c]azepin-8-one], the “In vitro clearance CLint (HLM)” value in series [1] was “B (50 μl/(min · mg of protein) > Clint > 20 μl/(min · mg of protein))”. The Papp at 20 h, 10 μmol in series [2] fell in the range of 5 to 10 ×10⁻⁶ cm/s. Further, the IC50 in series [3] (setting [4]) is 6.22 µM; in series [3] (setting [5]), above 0.2 µM.

For `Cn1cc(N2CCCc3c(-c4nc(N[C@H]5CCC(C)(C)NC5)ncc4C(F)(F)F)c[nH]c3C2=O)cn1` [CDK7_1122, 3-(2-{[(3S)-6,6-dimethylpiperidin-3-yl]amino}-5-(trifluoromethyl)py-rimidin-4-yl)-7-(1-methyl-1H-pyrazol-4-yl)-1H,4H,5H,6H,7H, 8H-pyrrolo[2,3-c]azepin-8-one], the “In vitro clearance CLint (HLM)” value in series [1] was “A (Clint < 20 μl/(min · mg of protein))”. For the same compound, in series [2], the Papp at 20 h, 10 μmol lay within 1 to 5 ×10⁻⁶ cm/s.

Take `CC1(C)CC[C@H](Nc2ncc(C(F)(F)F)c(-c3c[nH]c4c3CCCN(C3CC3)C4=O)n2)CN1` [CDK7_1225, 7-cyclopropyl-3-(2-{[(3S)-6,6-dimethylpiperidin-3-yl]amino}-5-(trifluoromethyl)py-rimidin-4-yl)-1H,4H,5H,6H,7H, 8H-pyrrolo[2,3-c]azepin-8-one]: in series [1], the “In vitro clearance CLint (HLM)” value was “A (Clint < 20 μl/(min · mg of protein))”. In addition, in series [2], the Papp at 20 h, 10 μmol was in the range of 1 to 5 ×10⁻⁶ cm/s. In addition, the IC50 in series [3] (setting [4]) is 13.9 µM; in series [3] (setting [5]) it was above 0.2 µM.

Consider `CC(C)N1CCCc2c(-c3nc(N[C@H]4CCC(C)(C)NC4)ncc3C(F)(F)F)c[nH]c2C1=O` [CDK7_1229, 3-(2-{[(3S)-6,6-dimethylpiperidin-3-yl]amino}-5-(trifluoromethyl)py-rimidin-4-yl)-7-(propan-2-yl)-1H,4H,5H,6H,7H, 8H-pyrrolo[2,3-c]azepin-8-one], for which, in series [1], the “In vitro clearance CLint (HLM)” value is “B (50 μl/(min · mg of protein) > Clint > 20 μl/(min · mg of protein))”. The Papp at 20 h, 10 μmol in series [2] fell in the range of 5 to 10 ×10⁻⁶ cm/s. In addition, the results for the IC50 in series [3] (setting [4]) and in series [3] (setting [5]) were 22.9 µM and above 0.2 µM, respectively.

Consider `Cn1cc(-n2ccc3c(-c4nc(N[C@H]5CCC(C)(C)NC5)ncc4C(F)(F)F)c[nH]c3c2=O)cn1` [CDK7_1123, 3-(2-{[(3S)-6,6-dimethylpiperidin-3-yl]amino}-5-(trifluoromethyl)py-rimidin-4-yl)-6-(1-methyl-1H-pyrazol-4-yl)-1H,6H,7H-pyrrolo[2,3-c]pyridin-7-one], for which the “In vitro clearance CLint (HLM)” value in series [1] is on record as “A (Clint < 20 μl/(min · mg of protein))”. In addition, the Papp at 20 h, 10 μmol in series [2] was below 1 ×10⁻⁶ cm/s. For the same compound, the figures for the IC50 in series [3] (setting [4]) and in series [3] (setting [5]) were 35.2 µM and above 0.2 µM, respectively.

In the case of `O=C1c2[nH]cc(-c3nc(NC4CCCNC4)ncc3C(F)(F)F)c2CCCN1C1CC1` (stereo not shown) [CDK7_1188], the “In vitro clearance CLint (HLM)” value in series [1] is reported as “A (Clint < 20 μl/(min · mg of protein))”. Besides, in series [2], the Papp at 20 h, 10 μmol was 1 to 5 ×10⁻⁶ cm/s. Besides, in series [3] (setting [5]), the IC50 was above 0.2 µM.

The values above are taken from US20260137698A1, “CYCLIN-DEPENDENT KINASE 7 INHIBITORS” (JOINT STOCK COMPANY «BIOCAD», priority 2022, published 2026).
